From article PMC3816671, “Cell Penetrating Peptoids (CPPos): Synthesis of a Small Combinatorial Library by Using IRORI MiniKans” (Pharmaceuticals, 2012)

How the values were obtained:
[1] = tested on: mitochondria of HeLa cells; experiment: Co-localization with the mitochondrial marker Mitotracker Green (Pearson's correlation of fluorescence profiles); assay type: cell-based, human; conditions: live-cell confocal fluorescence imaging, co-staining with 100 nM Mitotracker Green, 37 °C
Protocol: HeLa cells were treated with 1 and 10 µM of the corresponding peptoids for 1 and 24 h. […] However, for the better visualization of the organellar accumulation the incubation period was prolonged to 24 h. Co-localization experiments were performed by co-staining of the mitochondria with the mitochondrial marker Mitotracker Green^TM (Figure 5 and Figure 6).
By colocalizing the peptides with the mitochondrial marker Mitotracker Green^TM Pearson’s correlation coefficients (Rr) of the corresponding fluorescence profiles could be calculated reflecting mitochondrial specificity.
All procedures with mammalian cells were carried out under sterile conditions. […]
The purified peptoids were dissolved in bidistilled water to yield a 2 mM stock solution and were further diluted with 10% DMEM to yield the respective incubation media. […] Cellular uptake of the peptoids was measured by live-cell imaging after 1 and 24 h as fixation would alter the intracellular distribution as described for other polycationic species.
Visualization of the peptoids was achieved by confocal microscopy using a Leica TCS-SP5 II, equipped with a DMI6000 microscope. […] Fluorescence emission was measured at 417–468 nm for the detection of the nuclei, at 499–552 nm for the detection of the mitochondria, and 593–696 nm for the detection of the rhodamine B labeled peptoids. […]

HeLa cells = experiment: Cellular uptake and intracellular distribution of rhodamine B-labeled peptoids by live-cell confocal imaging; assay type: cell-based, human; conditions: 1 × 10^4 HeLa wt cells, 1 µM peptoid, 24 h, 37 °C, confocal fluorescence imaging, co-staining Hoechst 33342 and Mitotracker Green
Protocol: All procedures with mammalian cells were carried out under sterile conditions. 1 × 10^4 HeLa (human cervix carcinoma) cells were plated into each well of a 8-well µslide from IBIDI (Ibitreat, Martinsried, Germany) and cultured in 200 µL Dulbecco’s modified Eagle’s medium, high glucose, (DMEM, Invitrogen, Karlsruhe, Germany) supplemented with 10% fetal calf serum (FCS, PAA) and1 U/mL penicillin/streptomycin at 37 °C, 5% CO2.
The purified peptoids were dissolved in bidistilled water to yield a 2 mM stock solution and were further diluted with 10% DMEM to yield the respective incubation media. The cells were cultured as described above were incubated with the different peptoids at final concentrations of 1–10 µM. Cellular uptake of the peptoids was measured by live-cell imaging after 1 and 24 h as fixation would alter the intracellular distribution as described for other polycationic species.
Visualization of the peptoids was achieved by confocal microscopy using a Leica TCS-SP5 II, equipped with a DMI6000 microscope. The peptoids were excited at 561 nm using a DPSS laser. […] Fluorescence emission was measured at 417–468 nm for the detection of the nuclei, at 499–552 nm for the detection of the mitochondria, and 593–696 nm for the detection of the rhodamine B labeled peptoids. […]

RhoB-Npmb-Nlys3-NH2 [compound 11]
Pearson's correlation coefficient (Rr) of the fluorescence profiles of peptoid and Mitotracker Green, reflecting mitochondrial specificity [1]: +0.68 | Intracellular localization (HeLa cells): mitochondrial localization
